Measurements taken from patent US20230303504A1, “CRYSTALLINE SALTS OF TIZOXANIDE AND 2-HYDROXY-N-(5-CHLORO-1,3-THIAZOL-2-YL)BENZAMIDE (RM-4848) WITH ETHANOLAMINE, MORPHOLINE, PROPANOLAMINE, PIPERAZINE AND N-METHYLPIPERAZINE” (priority 2020, published 2023).
Structures can show the parent of a compound that is named as a salt.

How the values were obtained:
physchem [1] = type: physicochemical
From the text: The appropriate amine is heated with an equimolar amount of either tizoxanide or RM4848 in methanol until a clear solution is obtained. Any small amounts of undissolved solid are removed by filtration. On cooling, the desired salt may crystallize immediately; addition of an equal volume of a solvent, such as diethyl ether (for the tizoxanide salts) or concentration to a small volume, then addition of excess ether (for salts of RM4848), may be used to obtain solid products. In general the salts of RM4848 are more soluble under the above conditions. All the salts are more soluble in water than the parent thiazolides.
The resulting slurry was filtered without issues; the filtration went easy on a glass sintered funnel. The cake was washed with water (3×2 Veq) and methanol (3×2 Veq). Combining the neutralization step and aqueous washings provide that no HCl remains in the cake. Avoiding residual HCl in the product may be important because it could react with ethanolamine during step 2. Washing the cake with methanol allows for the removal of water. […] This way no Tizoxanide is lost during the washing of the cake; nevertheless, the remaining NTZA is not removed either.
RM5071 is not soluble in ethyl acetate, but it tends to form a sticky material. This was also observed during a test reaction in pure ethyl acetate. In addition, it was observed that RM5071 is almost soluble in methanol at a concentration of 5 mg/mL.

[2] = Bioavailability pharmacokinetic study, single oral gavage dose in rats; type: in vivo, Sprague-Dawley rats; settings: for maximum concentrations (Cmax) of T (medians): both, Sprague-Dawley
Description: A study was conducted to evaluate the bioavailability of tizoxanide (T) and tizoxanide glucuronide (TG) in plasma following oral administration of a single dose of 90 mg/kg RM-5071, RM-5072 and nitazoxanide by oral gavage to four male and four female Sprague-Dawley rats. Plasma samples were collected at 0.083, 0.167, 0.25, 0.5 1, 2, 6, 12 and 24-hours post-dose. Concentrations of T and TG were determined using mass spectrometry. […] These compounds are rapidly absorbed achieving Cmax within 5 minutes after an oral dose.
Animals and treatment. Three groups of four male and four female Sprague-Dawley rats were administered RM-5071, RM-5072 or NTZ as a single oral gavage dose as detailed in the table below:
Nine serial blood samples were obtained from each animal at 0.083, 0.167, 0.25, 0.5 1, 2, 6, 12 and 24-hours post-dose. Derived plasma samples were stored in sodium heparinized tubes at −70° C. or lower until they were shipped on dry ice via overnight courier for analysis of T and TG concentrations by mass spectrometry.
Because some animals glucurono-conjugate T faster than others, the extent, rate and variability of absorption of these three compounds using the sum of free and glucurono-conjugated T concentrations at each timepoint were evaluated. To arrive at the concentrations of glucurono-conjugated T, TG concentrations were multiplied by 61% (molecular weight of T=270 divided by molecular weight of TG=441).

[3] = in vivo; cited from earlier work
[4] = XRD temperature test (oven heating, then XRD); type: physicochemical
Description: A temperature test was performed in order to determine if any physical and crystallinity changes occurred to the sample RM-5071 upon heating.In order to assess if any change occurred two set of experiments were performed as follows: Experiment A- Two petri dishes were identified as “Fast” and “Slow”. To each petri dish, approximately 2 spatulas of sample RM-5071 were added. Then, the oven was turned on and set to a temperature of-160-165° C. After reaching the temperature, the petri dishes were placed in the oven for 15 minutes. Once the time was completed, the oven was turned off and the “Fast” sample was removed and left to reach room temperature (RT) in the hood. The “Slow” sample was left in the oven to reach RT in a slower manner. The “Slow” sample was removed from the oven, once it reached RT. The samples were analyzed by XRD. Experiment B- The procedure described above was followed at a temperature range of ˜110-120° C. After reaching the temperature, the petri dishes were placed in the oven during 10 minutes. The removal of samples from the oven was followed as previosly described. Afterwards, the samples were analyzed by XRD.

physchem [5] = type: physicochemical; settings: for solubility: thermodynamic from solid
Description: The apparent solubility of RM-5071 was tested using several solvents, specifically: DMF, DMSO, acetonitrile (ACN), water, ACN/water mixture, methanol, isopropanol, and ethanol. United States Pharmacopeia (USP) classify the solubility regardless of the solvent used, just following defined criteria summarized in Table 10. The solute was initially dissolved in each of the solvents or solvent system at a lmg/mL concentration. If solute remained undissolved, a fresh solution of lower concentration was subsequently prepared until the solid was observed completely dissolved. This concentration limit was estimated as the apparent solubility.
The solutions of RM-5071 were prepared, dissolving 10 mg in increasing solvent volumes ranging from 10 mL, 100 mL, to 1000 mL in each of the solvents. According to the visual inspection and observations the apparent solubility of RM-5071 was classified according the 10, as defined by the USP.
The solubility studies of RM-5071 were performed in several solvents as specified on Table 11 at room temperature. For the purpose of this chemical characterization report, the terms specified on Table 10 were used to describe the solubility of RM 5071 in different solvents on Table 12

[6] = Thermogravimetric analysis (TGA); type: physicochemical
From the text: Thermogravimetric analysis (TGA) is an analytical technique used to determine the thermal stability of a material and its fraction of volatile components by monitoring the weight change that occurs as a substance is heated. As many weight loss curves look similar, the curves may require transformation before results may be interpreted. A derivative weight loss curve can be used to tell the point at which weight loss is most apparent. The analysis is normally carried out in air or in an inert atmosphere such as nitrogen.
For the TGA analysis, amounts between 2.0 to 2.6 mg of both RM-5071 and desacetyl-NTZA samples were placed individually in platinum pans. The temperature method was: step 1: equilibrate at 25° C., step 2: heat from 25° C. to 700° C. at 10.00° C./min, step 3: hold for 5 min at 700° C. The analyses were carried out under nitrogen.

[7] = Differential scanning calorimetry (DSC); type: physicochemical; settings: 10 °C/min under nitrogen; irreversible for RM-5071
Description: Differential scanning calorimetry (DSC) is a thermo-analytical technique in which the difference in the amount of heat required to increase the temperature of a sample versus a reference are measured as a function of temperature. The reference sample should have a well-defined heat capacity over the range of temperatures to be scanned. One application of DSC is studying phase transitions, such as melting, glass transitions, and/or exothermic decompositions. Such measurements provide qualitative and quantitative information about physical and chemical changes of a molecule.
The calorimetric analysis was performed by the MCC. For the DSC analysis, amounts between 2.34 to 2.46 mg of the samples RM-5071 and desacetyl-NTZA were placed individually in aluminum hermetic pans and covered with an aluminum lid. The temperature method was: step 1: hold for 10 min at 25° C., and step 2: heat from 25° C. to 400 at 10.00 ° C./min. An additional DSC experiment was performed to determine further crystallinity behavior by performing a heat-cool-heat cycling experiment to RM-5071. Approximately 1.69 mg of the RM-5071sample was placed in an aluminum hermetic pan and covered with an aluminum lid. […]

physchem [8] = type: physicochemical; remark: listed apart in the source
Description: The acid titration was performed by adding 20 mL of a 1 mg/mL RM-5071 solution poured onto a beaker (titrate), the pH of the solution was measured while using a solution of 0.01N HCl as the titrant. The alkaline titration was performed by adding 20 mL of a 1 mg/mL RM-5071 solution were poured onto a beaker, the pH of the solution was measured while adding a solution 0.02 N NaOH as the titrant. The solutions had agitation with a magnetic stirrer during titration and it was stopped during pH measurements.
The inflection point was calculated using the second derivative of the experimental curve, the volume for the equivalence point is 5.83 mL of 0.01 N HCl, at a pH =5.99. […] The pKa of a phenolic proton is 9.9 as per Vollhardt, K. P. C.; Schore, N. E., Organic Chemistry; Palgrave Version: Structure and Function. Macmillan International Higher Education: 2014.

[9] = single 90 mg/kg oral gavage, 4 male and 4 female rats per group
[10] = single 90 mg/kg oral gavage, rats

O=C(Nc1ncc([N+](=O)[O-])s1)c1ccccc1O [Desacetyl-NTZA, 2-Hydroxybenzoyl-N-[(5-nitro)thiazol-2-yl]amide]
solubility in methanol (physchem [1]): fairly insoluble
solubility in water (physchem [1]): fairly insoluble

CC(=O)Oc1ccccc1C(=O)Nc1ncc([N+](=O)[O-])s1 [NTZ, 2-(acetolyloxy)-N-(5-nitro-2-thiazolyl) benzamide, reference compound]
solubility in methanol (physchem [1]): fairly insoluble
solubility in water (physchem [1]): fairly insoluble
maximum concentrations (Cmax) of T (medians) ([2]; rat, in vivo, po, 90 mg/kg): 1.7 µg/mL
adverse clinical signs ([2]; rat, in vivo, po, 90 mg/kg): No adverse clinical signs were observed
time at which Cmax of T was achieved ([2]; rat, in vivo, po, 90 mg/kg): 2 h
plasma half-life [3]: 1.3 h

O=C(Nc1ncc([N+](=O)[O-])s1)c1ccccc1O [RM-5071, 2-Hydroxybenzoyl-N-[(5-Nitro)Thiazol-2-yl]Amide, Ethanolamine Salt]
solubility in ethyl acetate (physchem [1]): not soluble
solubility (physchem [1]; organic solvent or mixture): ~5 mg/mL
physical and crystallinity changes upon heating ([4]; Experiment A: 160-165° C., 15 minutes): changed from bright yellow to a black powder with beige portions
physical and crystallinity changes upon heating ([4]; Experiment B: 110-120° C., 10 minutes): does not change significantly
Apparent solubility (physchem [5]): very soluble
solubility (physchem [5]; aqueous with cosolvent or surfactant or cyclodextrin, Apparent Solubility of RM-5071): > 1 mg/mL
solubility (physchem [5]; aqueous with cosolvent or surfactant or cyclodextrin, Apparent Solubility of RM-5071 (concentration limit)): > 1 mg/mL
solubility (physchem [5]; organic solvent or mixture, Apparent Solubility of RM-5071 (concentration limit)): 0.033 mg/mL
solubility (physchem [5]; water, Apparent Solubility of RM-5071 (concentration limit)): < 0.005 mg/mL
maximum concentrations (Cmax) of T (medians) ([2]; rat, in vivo, po, 90 mg/kg): 4.7 µg/mL
bioavailability in terms of the maximum concentration compared to NTZA ([2]; rat, in vivo): more bioavailable
mean AUC0-12h relative to NTZ ([2]; rat, in vivo): roughly the same
mean AUC0-12h relative to RM-5072 ([2]; rat, in vivo): almost double
adverse clinical signs [2, 9]: No adverse clinical signs were observed
plasma concentrations of T and TG (free and glucurono-conjugated T) compared to RM-5072 or NTZ [2, 10]: higher
speed of availability of T in plasma compared to NTZ [2, 10]: dramatically improve
variability of absorption compared to RM-5072 or NTZ [2, 10]: less variability
First step Temperature (° C.) ([6]; 10 °C/min under nitrogen): 85-160 °C
Second step Temperature(° C.) ([6]; 10 °C/min under nitrogen): 160-254 °C
Second step Weight loss (%) ([6]; 10 °C/min under nitrogen): 30.93%
Third step Temperature(° C.) ([6]; 10 °C/min under nitrogen): 254-700 °C
Third step Weight loss (%) ([6]; 10 °C/min under nitrogen): 26.62%
total weight loss ([6]; 25 to 700 °C under nitrogen): 77%
DSC peak transition temperature (exothermic; solid stable up to) [7]: 163 °C
pKa (physchem [8]): 8.8
pH of solution (physchem [8]; 1 mg/mL RM-5071 solution, initial): 9.44
pH at which full dissolution of the solid is achieved (physchem [8]; 1 mg/mL, titration with NaOH): 10.63

O=C(Nc1ncc([N+](=O)[O-])s1)c1ccccc1O [RM-5072, 2-Hydroxybenzoyl-N-[(5-Nitro)Thiazol-2-yl]Amide, Morpholine Salt]
maximum concentrations (Cmax) of T (medians) ([2]; rat, in vivo, po, 90 mg/kg): 3.1 µg/mL
adverse clinical signs [2, 9]: No adverse clinical signs were observed
speed of availability of T in plasma compared to NTZ [2, 10]: dramatically improve
